Measured values taken from patent US20250281402A1, “COMPOSITIONS FOR LOCAL THERAPY DELIVERY TO BRAIN TUMORS AND METHODS” (Massachusetts Institute of Technology, priority 2022, published 2025).
pIC50: −log10 of the molar value. Read-outs that look alike come from different tables or passages of the source.

Columns and labels:
GL261 = experiment: Potency (cell viability v. concentration) against GBM cell line GL261; type: cell-based
Experimental: (§1) The potencies of several therapies again GBM cells lines were measured.
(§2) FIG. 3 depicts a plot of cell viability v. concentration of each of the therapies listed in the foregoing table.

CT-2A = experiment: Potency (cell viability v. concentration) against GBM cell line CT-2A; type: cell-based
Experimental: as §1, §2

GBM spheroids = experiment: Elimination of GBM spheroids in vitro; type: cell-based; details: compared with other tested chemotherapies
From the text: The other tested chemotherapies, however, may be used in the methods and compositions described herein.

[1] = In vitro drug release from hydrogels; type: physicochemical
Experimental: Doxorubin release profiles of the foregoing compositions were tested.
Also compared was the cumulative release percentage of doxil and doxorubicin.
The in vitro release of acriflavine also was tested. An injectable hydrogel formulation (75% oxidized dextran, 12.5% w/v; PAMAM dendrimer, 15% w/v, pH 9.2) was prepared with four different loading concentrations (0.625 mg, 1.25 mg, 2.5 mg, and 5 mg, each of which had been previously injected locally in the brain).

GBM cells = experiment: Calreticulin surface expression and HMGB1 excretion of GBM cells
[2] = Mus musculus, GL261, read-out: IC50 in GL261

Compound	pIC50 (GL261; [2])	pIC50 (CT-2A; read-out: IC50 in CT-2A)	further results
O=NN(CCCl)C(=O)NCCCl [Carmustine (BCNU), Carmustine]	3.84	3.81	–
COc1cccc2c1C(=O)c1c(O)c3c(c(O)c1C2=O)C[C@@](O)(C(=O)CO)C[C@@H]3O[C@H]1C[C@H](N)[C@H](O)[C@H](C)O1 [Doxorubicin]	6.10	7.00	elimination of GBM spheroids (GBM spheroids): more potently eliminated GBM spheroids in vitro than other tested chemotherapies; cumulative percentage released, doxorubicin compared with doxil ([1]; over 200 hours, FIG. 11): greater cumulative percentage; pIC50 (GL261; Mus musculus, GL261, comparative testing doxil v. doxorubicin, FIG. 20A/20B, read-out: potency from cell viabilities, GL261 (quantity not named)): 6.08; pIC50 (CT-2A; comparative testing doxil v. doxorubicin, FIG. 20A/20B, read-out: potency from cell viabilities, CT-2A (quantity not named)): 6.77; surface expression of calreticulin (GBM cells; FIG. 42, FIG. 43): increase the surface expression of calreticulin; HMGB1 excretion (GBM cells; at relevant concentrations): did not impact HMGB1 excretion at relevant concentrations
CCc1c2c(nc3ccc(OC(=O)N4CCC(N5CCCCC5)CC4)cc13)-c1cc3c(c(=O)n1C2)COC(=O)[C@]3(O)CC [Irinotecan]	3.97	3.82	–
Cn1nnc2c(C(N)=O)ncn2c1=O [Temozolomide]	< 3.12	< 3.12	–
Acriflavine	–	5.14	activity upon release ([1]; released from hydrogel): retained its activity upon release; pIC50 (GL261; read-out: IC50 in GL261): 5.57
